From publication PMC11033320, “Activation of p53 signaling and regression of breast and prostate carcinoma cells by spirooxindole-benzimidazole small molecules” (Frontiers in Pharmacology, 2024)

Key:
PC-3 cells = experiment: MTT assay anticancer activity, PC-3; format: cell-based; conditions: Homo sapiens, PC-3, 5 µM, mean ± SEM, read-out: growth inhibition percentage of PC-3
Text: MTT method was done as described above.

CCRF-CEM = experiment: NCI anticancer screening, Leukemia CCRF-CEM; format: cell-based; conditions: Homo sapiens, read-out: % Growth Inhibition (GI %)
Text: (§1) The compound has been processed according to standard method NCI-60 Human Tumor Cell Lines Screen for organic compound at development therapeutic program (DTP). Requests for access to this national resource can be submitted online at: […]

K-562 = experiment: NCI anticancer screening, Leukemia K-562; format: cell-based; conditions: Homo sapiens, K562; K-562, 10 μM; read-out: % Growth Inhibition (GI %)
Text: as §1

MOLT-4 = experiment: NCI anticancer screening, Leukemia MOLT-4; format: cell-based; conditions: Homo sapiens; MOLT-4, 10 μM; read-out: % Growth Inhibition (GI %)
Text: as §1

RPMI-8226 = experiment: NCI anticancer screening, Leukemia RPMI-8226; format: cell-based; conditions: Homo sapiens; RPMI-8226, 10 μM; read-out: % Growth Inhibition (GI %)
Text: as §1

SR = experiment: NCI anticancer screening, Leukemia SR; format: cell-based; conditions: Homo sapiens, read-out: % Growth Inhibition (GI %)
Text: as §1

EKVX = experiment: NCI anticancer screening, Non-Small Cell Lung Cancer EKVX; format: cell-based; conditions: Homo sapiens, read-out: % Growth Inhibition (GI %)
Text: as §1

HOP-62 = experiment: NCI anticancer screening, Non-Small Cell Lung Cancer HOP-62; format: cell-based; conditions: Homo sapiens; HOP-62, 10 μM; read-out: % Growth Inhibition (GI %)
Text: as §1

HOP-92 = experiment: NCI anticancer screening, Non-Small Cell Lung Cancer HOP-92; format: cell-based; conditions: Homo sapiens; HOP-92, 10 μM; read-out: % Growth Inhibition (GI %)
Text: as §1

NCI-H460 = experiment: NCI anticancer screening, Non-Small Cell Lung Cancer NCI-H460; format: cell-based; conditions: Homo sapiens; NCI-H460, 10 μM; read-out: % Growth Inhibition (GI %)
Text: as §1

HCC-2998 = experiment: NCI anticancer screening, Colon Cancer HCC-2998; format: cell-based; conditions: Homo sapiens; HCC-2998, 10 μM; read-out: % Growth Inhibition (GI %)
Text: as §1

HCT-116 = experiment: NCI anticancer screening, Colon Cancer HCT-116; format: cell-based; conditions: Homo sapiens; HCT-116, 10 μM; read-out: % Growth Inhibition (GI %)
Text: as §1

SW-620 = experiment: NCI anticancer screening, Colon Cancer SW-620; format: cell-based; conditions: Homo sapiens; SW-620, 10 μM; read-out: % Growth Inhibition (GI %)
Text: as §1

SF-268 = experiment: NCI anticancer screening, CNS Cancer SF-268; format: cell-based; conditions: Homo sapiens; SF-268, 10 μM; read-out: % Growth Inhibition (GI %)
Text: as §1

SNB-19 = experiment: NCI anticancer screening, CNS Cancer SNB-19; format: cell-based; conditions: Homo sapiens; SNB-19, 10 μM; read-out: % Growth Inhibition (GI %)
Text: as §1

SNB-75 = experiment: NCI anticancer screening, CNS Cancer SNB-75; format: cell-based; conditions: Homo sapiens; SNB-75, 10 μM; read-out: % Growth Inhibition (GI %)
Text: as §1

MALME-3M = experiment: NCI anticancer screening, Melanoma MALME-3M; format: cell-based; conditions: Homo sapiens, read-out: % Growth Inhibition (GI %)
Text: as §1

M14 = experiment: NCI anticancer screening, Melanoma M14; format: cell-based; conditions: Homo sapiens; M14, 10 μM; read-out: % Growth Inhibition (GI %)
Text: as §1

MDA-MB-435 = experiment: NCI anticancer screening, Melanoma MDA-MB-435; format: cell-based; conditions: Homo sapiens; MDA-MB-435, 10 μM; read-out: % Growth Inhibition (GI %)
Text: as §1

SK-MEL-2 = experiment: NCI anticancer screening, Melanoma SK-MEL-2; format: cell-based; conditions: Homo sapiens; SK-MEL-2, 10 μM; read-out: % Growth Inhibition (GI %)
Text: as §1

SK-MEL-28 = experiment: NCI anticancer screening, Melanoma SK-MEL-28; format: cell-based; conditions: Homo sapiens; SK-MEL-28, 10 μM; read-out: % Growth Inhibition (GI %)
Text: as §1

UACC-257 = experiment: NCI anticancer screening, Melanoma UACC-257; format: cell-based; conditions: Homo sapiens; UACC-257, 10 μM; read-out: % Growth Inhibition (GI %)
Text: as §1

IGROV1 = experiment: NCI anticancer screening, Ovarian Cancer IGROV1; format: cell-based; conditions: Homo sapiens, IGROV-1; IGROV1, 10 μM; read-out: % Growth Inhibition (GI %)
Text: as §1

OVCAR-4 = experiment: NCI anticancer screening, Ovarian Cancer OVCAR-4; format: cell-based; conditions: Homo sapiens; OVCAR-4, 10 μM; read-out: % Growth Inhibition (GI %)
Text: as §1

OVCAR-5 = experiment: NCI anticancer screening, Ovarian Cancer OVCAR-5; format: cell-based; conditions: Homo sapiens; OVCAR-5, 10 μM; read-out: % Growth Inhibition (GI %)
Text: as §1

OVCAR-8 = experiment: NCI anticancer screening, Ovarian Cancer OVCAR-8; format: cell-based; conditions: Homo sapiens; OVCAR-8, 10 μM; read-out: % Growth Inhibition (GI %)
Text: as §1

NCI/ADR-RES = experiment: NCI anticancer screening, Ovarian Cancer NCI/ADR-RES; format: cell-based; conditions: Homo sapiens, read-out: % Growth Inhibition (GI %)
Text: as §1

786-0 = experiment: NCI anticancer screening, Renal Cancer 786-0; format: cell-based; conditions: Homo sapiens; 786-0, 10 μM; read-out: % Growth Inhibition (GI %)
Text: as §1

ACHN = experiment: NCI anticancer screening, Renal Cancer ACHN; format: cell-based; conditions: Homo sapiens, read-out: % Growth Inhibition (GI %)
Text: as §1

CAKI-1 = experiment: NCI anticancer screening, Renal Cancer CAKI-1; format: cell-based; conditions: Homo sapiens; CAKI-1, 10 μM; read-out: % Growth Inhibition (GI %)
Text: as §1

RXF 393 = experiment: NCI anticancer screening, Renal Cancer RXF 393; format: cell-based; conditions: Homo sapiens; RXF 393, 10 μM; read-out: % Growth Inhibition (GI %)
Text: as §1

TK-10 = experiment: NCI anticancer screening, Renal Cancer TK-10; format: cell-based; conditions: Homo sapiens; TK-10, 10 μM; read-out: % Growth Inhibition (GI %)
Text: as §1

UO-31 = experiment: NCI anticancer screening, Renal Cancer UO-31; format: cell-based; conditions: Homo sapiens; UO-31, 10 μM; read-out: % Growth Inhibition (GI %)
Text: as §1

DU-145 = experiment: NCI anticancer screening, DU-145; format: cell-based; conditions: Homo sapiens; DU-145, 10 μM; read-out: % Growth Inhibition (GI %)
Text: as §1

BT-549 = experiment: NCI anticancer screening, Breast Cancer BT-549; format: cell-based; conditions: Homo sapiens; BT-549, 10 μM; read-out: % Growth Inhibition (GI %)
Text: as §1

MDA-MB 231 cells = conditions: for inhibition: 5 µM

In the case of `O=C(c1nc2ccccc2[nH]1)[C@H]1[C@H](c2cccc(F)c2)C2CSCN2[C@]12C(=O)Nc1ccccc12` (stereo partly drawn) [Compound 6m, (3S,6′R)-6'-(1H-Benzo [d]imidazole-2-carbonyl)-7'-(3-fluorophenyl)-3′,6′,7′,7a′-tetrahydro-1′H-spiro [indoline-3.5′-pyrrolo [1,2-c]thiazol]-2-one], the inhibition at 5 µM (PC-3 cells) is reported as 60.1 ± 0.521%, the inhibition at 10 µM (CCRF-CEM) is reported as 112% and the inhibition at 10 µM (K-562) is reported as 84.4%. The inhibition at 10 µM (MOLT-4) was 85.5%, the inhibition at 10 µM (RPMI-8226) was 83.6% and the inhibition at 10 µM (SR) was 82.8%. It also gave an inhibition at 10 µM (EKVX) of 88.2%, an inhibition at 10 µM (HOP-62) of 97.9% and an inhibition at 10 µM (HOP-92) of 99.7%. For the same compound, the inhibition at 10 µM (NCI-H460) was 97.3%, the inhibition at 10 µM (HCC-2998) was 91.8% and the inhibition at 10 µM (HCT-116) was 84.4%. For the same compound, the inhibition at 10 µM (SW-620) was 89.1%, the inhibition at 10 µM (SF-268) was 88.6% and the inhibition at 10 µM (SNB-19) was 91.9%. The inhibition at 10 µM (SNB-75) was 77.7%, the inhibition at 10 µM (MALME-3M) was 97.5% and the inhibition at 10 µM (M14) was 97%. For the same compound, the inhibition at 10 µM (MDA-MB-435) was 96.5%, the inhibition at 10 µM (SK-MEL-2) was 95.7% and the inhibition at 10 µM (SK-MEL-28) was 102%. It also gave an inhibition at 10 µM (UACC-257) of 99%, an inhibition at 10 µM (IGROV1) of 84.6% and an inhibition at 10 µM (OVCAR-4) of 87.3%. It also gave an inhibition at 10 µM (OVCAR-5) of 90.5%, an inhibition at 10 µM (OVCAR-8) of 94.9% and an inhibition at 10 µM (NCI/ADR-RES) of 95.9%. It also gave an inhibition at 10 µM (786-0) of 100%, an inhibition at 10 µM (ACHN) of 90.2% and an inhibition at 10 µM (CAKI-1) of 74.7%. The inhibition at 10 µM (RXF 393) was 85.2%, the inhibition at 10 µM (TK-10) was 116% and the inhibition at 10 µM (UO-31) was 65.3%. For the same compound, the inhibition at 10 µM (DU-145) was 105%, the inhibition at 10 µM (BT-549) was 99.5% and the IC50 (MDA-MB 231 cells) was 4.73 ± 0.224 µM. For the same compound, the inhibition (MDA-MB 231 cells) was 62.8 ± 3.91%.

`CN(C)c1ccc([C@@H]2C3CSCN3[C@]3(C(=O)Nc4ccccc43)[C@H]2C(=O)c2nc3ccccc3[nH]2)cc1` (stereo partly drawn) [Compound 6k, (3S,6′R)-6'-(1H-Benzo [d]imidazole-2-carbonyl)-7'-(4-(dimethylamino)phenyl)-3′,6′,7′,7a′-tetrahydro-1′H-spiro [indoline-3.5′-pyrrolo [1,2-c]thiazol]-2-one] gave an inhibition at 5 µM (PC-3 cells) of 41.6 ± 0.729%, an inhibition at 10 µM (CCRF-CEM) of 99.9% and an inhibition at 10 µM (K-562) of 92.2%. For the same compound, the inhibition at 10 µM (MOLT-4) was 85.6%, the inhibition at 10 µM (SR) was 84.3% and the inhibition at 10 µM (EKVX) was 91.4%. The inhibition at 10 µM (HOP-62) was 95.7%, the inhibition at 10 µM (HOP-92) was 104% and the inhibition at 10 µM (NCI-H460) was 102%. For the same compound, the inhibition at 10 µM (HCC-2998) was 102%, the inhibition at 10 µM (HCT-116) was 102% and the inhibition at 10 µM (SW-620) was 100%. It also gave an inhibition at 10 µM (SF-268) of 92.1%, an inhibition at 10 µM (SNB-19) of 91.7% and an inhibition at 10 µM (SNB-75) of 88.3%. It also gave an inhibition at 10 µM (MALME-3M) of 94.7%, an inhibition at 10 µM (M14) of 103% and an inhibition at 10 µM (MDA-MB-435) of 96.8%. It also gave an inhibition at 10 µM (SK-MEL-2) of 106%, an inhibition at 10 µM (SK-MEL-28) of 96.1% and an inhibition at 10 µM (UACC-257) of 90.2%. It also gave an inhibition at 10 µM (IGROV1) of 89.8%, an inhibition at 10 µM (OVCAR-4) of 91.5% and an inhibition at 10 µM (OVCAR-5) of 95.6%. It also gave an inhibition at 10 µM (OVCAR-8) of 105%, an inhibition at 10 µM (NCI/ADR-RES) of 96% and an inhibition at 10 µM (786-0) of 103%. The inhibition at 10 µM (ACHN) was 99%, the inhibition at 10 µM (CAKI-1) was 85.8% and the inhibition at 10 µM (RXF 393) was 99.7%. It also gave an inhibition at 10 µM (TK-10) of 111%, an inhibition at 10 µM (UO-31) of 73.4% and an inhibition at 10 µM (DU-145) of 104%. It also gave an inhibition at 10 µM (BT-549) of 108%, an IC50 (MDA-MB 231 cells) of 4 ± 0.249 µM and an inhibition (MDA-MB 231 cells) of 37.6 ± 2.61%.
